Results taken from patent US20050187462A1, “Dynamic contrast enhanced imaging using a mamillary distributed parameter model” (priority 2004, published 2005).

Assay: Prostate case study: DCE CT tissue concentration-time curve fitted to 2-, 3- and 4-compartment mamillary distributed-parameter models
Format: in vivo, patient
Settings: value (percent CV); for t1: vascular transit time
From the text: It is instructive to apply the present mamillary model to a tumor study case to further illustrate some physiological aspects of the model, and also for comparison with another model. Ca(t) was sampled at the iliac arteries simultaneously in the same CT scan as the prostate tissue concentration-time curve, Ctiss(t). The contrast medium used was the x-ray dye lopamidol and the region of interest for Ctiss was drawn over the prostate gland. Example imaging and patient protocols that were used are, for example, expounded upon in T. S. Koh, V. Zeman, J. Darko, T. Lee, M. F. Milosevic, M. Haider, P. Warde, and I. W. T. Yeung, “The inclusion of capillary distribution in the adiabatic tissue homogeneity model of blood flow”, Phys. Med. Biol., vol. 46, pp. 1519-1538, 2001.
The ‘goodness-of-fit’ between model and data can be given by the χ^2 statistic as detailed in equation (11).
A 2-compartment distributed-parameter model has 4 adjustable parameters (i.e F, t1, k12 and k21), and each additional compartment introduces two additional parameters given by the rate constants.
The tissue concentration-time curve Ctiss(t) was sampled at a region of interest over the prostate tumor. […] A test statistic to compare the goodness-of-fit of a more complex model (χ^2c) with that of a less complex (reduced) model (χ^2r) can be given by equation (12), namely [formula] which follows the F-distribution. The degrees of freedom dfr and dfc are those associated with the reduced and complex models, respectively. […] Correspondingly, large values of F* would justify the more complex model.
The fitted Ctiss(t) curves using 2-, 3- and 4-compartment distributed-parameter models are shown in FIG. 5 and their corresponding impulse residue functions are shown in FIG. 6. The values for the parameters adjusted in the model fittings together with their error estimates (as percent CVi) are listed in Table 1.

[1] = 2-compartment model, rate constant for tracer transfer
[2] = 3-compartment model, rate constant for tracer transfer
[3] = 4-compartment model, rate constant for tracer transfer

K12 [1]: 0.744 (4) min^−1
K21 [1]: 2.183 (4) min^−1
t1 (2-compartment model): 0.717 (3) min
K12 [2]: 1.581 (17) min^−1
K13 [2]: 0.259 (28) min^−1
K21 [2]: 1.854 (15) min^−1
K31 [2]: 0.818 (25) min^−1
t1 (3-compartment model): 0.688 (9) min
K12 [3]: 1.579 (20) min^−1
K13 [3]: 0.264 (36) min^−1
K14 [3]: 0.000 (53) min^−1
K21 [3]: 1.853 (17) min^−1
K31 [3]: 0.816 (32) min^−1
K41 [3]: 0.000 (44) min^−1
t1 (4-compartment model): 0.688 (11) min
SMILES: C[C@H](O)C(=O)Nc1c(I)c(C(=O)NC(CO)CO)c(I)c(C(=O)NC(CO)CO)c1I [lopamidol]
